According to publication PMC13266999, “Designing Antibiotics with Inherent Resistance to Efflux as a Strategy to Revive Discovery against Multidrug-Resistant Pathogens” (Journal of Medicinal Chemistry, 2026):
Values after ≈ are worked out from the molar mass of the structure shown. Like-named read-outs stand apart in the source and are kept apart here.

What was measured:
[1] = system: major human CYP isoforms other than CYP3A (midazolam substrate); assay: Cytochrome P450 inhibition panel; conditions: human recombinant CYP enzymes in microsomal preparations
Experimental: Cytochrome P450 inhibition was assessed in vitro using human recombinant enzymes in microsomal preparations. […] Enzyme activity was quantified by monitoring formation of substrate-specific metabolites, and percent inhibition was calculated relative to vehicle control.

[2] = male, ICR, mouse, in vivo, po
Neisseria gonorrhoeae = assay: MIC; assay type: cell-based
S. epidermidis = assay: MIC (microbroth dilution); assay type: cell-based, Staphylococcus epidermidis; conditions: Staphylococcus epidermidis, read-out: MIC
Experimental: (§1) All bacteria were maintained on tryptic soy agar (TSA), except Streptococcus spp., which were maintained on Columbia agar plates containing 5% horse blood. […] Bacteria were grown to stationary phase in liquid culture overnight, with shaking at 200 rpm, before being back diluted to the relevant starting concentration for each assay below. MICs were measured by the microbroth dilution method. […] Absorbance at OD600 was read on a CLARIOstar spectrophotometer (BMG Labtech) and the MIC was defined as the minimum concentration of compound where no visible growth was detected. […] MICs were also performed in the presence of the outer membrane permeator, polymyxin b nonapeptide (PMBN) following the same MIC method but with the following variation. The 2-fold dilution series of compound was prepared as above, then 50 μL of PMBN at a final concentration of 30 μg/mL was added to relevant wells, while 50 μL/well of blank media was added to the remaining wells. Bacteria were then added at 50 μL/well for a starting concentration as above. […] The MICs were read and defined as above. All animal procedures were performed by the contract research organization Pharmacology Discovery Services Taiwan in accordance with the Guide for the Care and Use of Laboratory Animals. The procedures were approved by the Institutional Ethics Committee of Pharmacology Discovery Services Taiwan, Ltd. (approval no. AB127662), in compliance with animal welfare legislation in Taiwan.

E. faecalis = assay: MIC (microbroth dilution); assay type: cell-based, Enterococcus faecalis; conditions: for MIC: Enterococcus faecalis
Experimental: as §1
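Wherever Response (death/test) is given: male ICR mice given oral doses under a stepwise escalation scheme to find the highest tolerated dose.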

SMILES: C[C@H]1COc2c(N3CC[C@@H](Nc4ncccn4)C3)c(F)cc3c(=O)c(C(=O)O)cn1c23 [Compound 46, (S)-9-Fluoro-3-methyl-7-oxo-10-((R)-3-(pyrimidin-2-ylamino)pyrrolidin-1-yl)-2,3-dihydro-7H-[1,4]oxazino[2,3,4-ij]quinoline-6-carboxylic acid]
- inhibition at 10 µM [1]: ≤ 13%
- Response (death/test) ([2]; 100 mg/kg): 0/3
- Response (death/test) ([2]; 100 mg/kg, 24 h): 0/3
- Response (death/test) ([2]; 100 mg/kg, 48 h): 0/3
- Response (death/test) ([2]; 100 mg/kg, 72 h): 0/3
- Response (death/test) ([2]; 200 mg/kg): 0/3
- Response (death/test) ([2]; 400 mg/kg): 0/3
- MIC (Neisseria gonorrhoeae; 2007NG046): 4 µg/mL (≈ 9.4 µM)
- MIC (Neisseria gonorrhoeae; 2008NG057): 2 µg/mL (≈ 4.7 µM)
- MIC (Neisseria gonorrhoeae; 2008NG097): 2 µg/mL (≈ 4.7 µM)
- MIC (Neisseria gonorrhoeae; 2009NG514): 2 µg/mL (≈ 4.7 µM)
- MIC (Neisseria gonorrhoeae; 2010NG122): 2 µg/mL (≈ 4.7 µM)
- MIC (Neisseria gonorrhoeae; ATCC49226, ATCC 49226): ≤ 0.03 µg/mL
- MIC (Neisseria gonorrhoeae; ATCC700825, ATCC 700825): ≤ 0.03 µg/mL
- MIC (Neisseria gonorrhoeae; BAA1833, BAA-1833): ≤ 0.03 µg/mL
- MIC (Neisseria gonorrhoeae; BAA1838, BAA-1838): ≤ 0.03 µg/mL
- MIC (Neisseria gonorrhoeae; CCUG57595, CCUG 57595): ≤ 0.03 µg/mL
- MIC (Neisseria gonorrhoeae; CCUG57596, CCUG 57596): 0.125 µg/mL (≈ 0.294 µM)
- MIC (Neisseria gonorrhoeae; CCUG57597, CCUG 57597): 2 µg/mL (≈ 4.7 µM)
- MIC (Neisseria gonorrhoeae; CCUG57598, CCUG 57598): 2 µg/mL (≈ 4.7 µM)
- MIC (Neisseria gonorrhoeae; CCUG57599, CCUG 57599): 0.5 µg/mL (≈ 1.18 µM)
- MIC (Neisseria gonorrhoeae; CCUG57600, CCUG 57600): 1 µg/mL (≈ 2.35 µM)
- MIC (Neisseria gonorrhoeae; CCUG57601, CCUG 57601): ≤ 0.03 µg/mL
- MIC (Neisseria gonorrhoeae; CCUG57602, CCUG 57602): 0.06 µg/mL (≈ 0.141 µM)
- MIC (Neisseria gonorrhoeae; FDA-CDC AR-BANK#0165): 2 µg/mL (≈ 4.7 µM)
- MIC (Neisseria gonorrhoeae; FDA-CDC AR-BANK#0166): 2 µg/mL (≈ 4.7 µM)
- MIC (Neisseria gonorrhoeae; FDA-CDC AR-BANK#0167): ≤ 0.03 µg/mL
- MIC (Neisseria gonorrhoeae; FDA-CDC AR-BANK#0168): 1 µg/mL (≈ 2.35 µM)
- MIC (Neisseria gonorrhoeae; FDA-CDC AR-BANK#0169): 2 µg/mL (≈ 4.7 µM)
- MIC (Neisseria gonorrhoeae; FDA-CDC AR-BANK#0170): 2 µg/mL (≈ 4.7 µM)
- MIC (Neisseria gonorrhoeae; FDA-CDC AR-BANK#0171): 1 µg/mL (≈ 2.35 µM)
- MIC (Neisseria gonorrhoeae; FDA-CDC AR-BANK#0172): 1 µg/mL (≈ 2.35 µM)
- MIC (Neisseria gonorrhoeae; FDA-CDC AR-BANK#0173): 2 µg/mL (≈ 4.7 µM)
- MIC (Neisseria gonorrhoeae; FDA-CDC AR-BANK#0174): 2 µg/mL (≈ 4.7 µM)
- MIC (Neisseria gonorrhoeae; FDA-CDC AR-BANK#0175): ≤ 0.03 µg/mL
- MIC (Neisseria gonorrhoeae; FDA-CDC AR-BANK#0176): 2 µg/mL (≈ 4.7 µM)
- MIC (Neisseria gonorrhoeae; FDA-CDC AR-BANK#0177): ≤ 0.03 µg/mL
- MIC (Neisseria gonorrhoeae; FDA-CDC AR-BANK#0178): 2 µg/mL (≈ 4.7 µM)
- MIC (Neisseria gonorrhoeae; FDA-CDC AR-BANK#0179): ≤ 0.03 µg/mL
- MIC (Neisseria gonorrhoeae; FDA-CDC AR-BANK#0180): 2 µg/mL (≈ 4.7 µM)
- MIC (Neisseria gonorrhoeae; FDA-CDC AR-BANK#0181): ≤ 0.03 µg/mL
- MIC (Neisseria gonorrhoeae; FDA-CDC AR-BANK#0182): 2 µg/mL (≈ 4.7 µM)
- MIC (Neisseria gonorrhoeae; FDA-CDC AR-BANK#0183): 2 µg/mL (≈ 4.7 µM)
- MIC (Neisseria gonorrhoeae; FDA-CDC AR-BANK#0184): 2 µg/mL (≈ 4.7 µM)
- MIC (Neisseria gonorrhoeae; FDA-CDC AR-BANK#0185): 2 µg/mL (≈ 4.7 µM)
- MIC (Neisseria gonorrhoeae; FDA-CDC AR-BANK#0186): 1 µg/mL (≈ 2.35 µM)
- MIC (Neisseria gonorrhoeae; FDA-CDC AR-BANK#0187): 2 µg/mL (≈ 4.7 µM)
- MIC (Neisseria gonorrhoeae; FDA-CDC AR-BANK#0188): 1 µg/mL (≈ 2.35 µM)
- MIC (Neisseria gonorrhoeae; FDA-CDC AR-BANK#0189): 2 µg/mL (≈ 4.7 µM)
- MIC (Neisseria gonorrhoeae; FDA-CDC AR-BANK#0190): 2 µg/mL (≈ 4.7 µM)
- MIC (Neisseria gonorrhoeae; FDA-CDC AR-BANK#0191): 2 µg/mL (≈ 4.7 µM)
- MIC (Neisseria gonorrhoeae; FDA-CDC AR-BANK#0192): 2 µg/mL (≈ 4.7 µM)
- MIC (Neisseria gonorrhoeae; FDA-CDC AR-BANK#0193): ≤ 0.03 µg/mL
- MIC (Neisseria gonorrhoeae; FDA-CDC AR-BANK#0194): ≤ 0.03 µg/mL
- MIC (Neisseria gonorrhoeae; FDA-CDC AR-BANK#0195): 2 µg/mL (≈ 4.7 µM)
- MIC (Neisseria gonorrhoeae; FDA-CDC AR-BANK#0196): 2 µg/mL (≈ 4.7 µM)
- MIC (Neisseria gonorrhoeae; FDA-CDC AR-BANK#0197): 2 µg/mL (≈ 4.7 µM)
- MIC (Neisseria gonorrhoeae; FDA-CDC AR-BANK#0198): 2 µg/mL (≈ 4.7 µM)
- MIC (Neisseria gonorrhoeae; FDA-CDC AR-BANK#0199): ≤ 0.03 µg/mL
- MIC (Neisseria gonorrhoeae; FDA-CDC AR-BANK#0200): 2 µg/mL (≈ 4.7 µM)
- MIC (Neisseria gonorrhoeae; FDA-CDC AR-BANK#0201): 2 µg/mL (≈ 4.7 µM)
- MIC (Neisseria gonorrhoeae; FDA-CDC AR-BANK#0202): ≤ 0.03 µg/mL
- MIC (Neisseria gonorrhoeae; FDA-CDC AR-BANK#0203): 2 µg/mL (≈ 4.7 µM)
- MIC (Neisseria gonorrhoeae; FDA-CDC AR-BANK#0204): 2 µg/mL (≈ 4.7 µM)
- MIC (Neisseria gonorrhoeae; FDA-CDC AR-BANK#0205): 2 µg/mL (≈ 4.7 µM)
- MIC (Neisseria gonorrhoeae; FDA-CDC AR-BANK#0206): 2 µg/mL (≈ 4.7 µM)
- MIC (Neisseria gonorrhoeae; FDA-CDC AR-BANK#0207): 2 µg/mL (≈ 4.7 µM)
- MIC (Neisseria gonorrhoeae; FDA-CDC AR-BANK#0208): 2 µg/mL (≈ 4.7 µM)
- MIC (Neisseria gonorrhoeae; FDA-CDC AR-BANK#0209): 2 µg/mL (≈ 4.7 µM)
- MIC (Neisseria gonorrhoeae; FDA-CDC AR-BANK#0210): 2 µg/mL (≈ 4.7 µM)
- MIC (Neisseria gonorrhoeae; FDA-CDC AR-BANK#0211): 2 µg/mL (≈ 4.7 µM)
- MIC (Neisseria gonorrhoeae; FDA-CDC AR-BANK#0212): 2 µg/mL (≈ 4.7 µM)
- MIC (Neisseria gonorrhoeae; FDA-CDC AR-BANK#0213): 1 µg/mL (≈ 2.35 µM)
- MIC (Neisseria gonorrhoeae; FDA-CDC AR-BANK#0214): 2 µg/mL (≈ 4.7 µM)
- MIC (Neisseria gonorrhoeae; NCTC13477, NCTC 13477): ≤ 0.125 µg/mL
- MIC (Neisseria gonorrhoeae; NCTC13817, NCTC 13817): 0.5 µg/mL (≈ 1.18 µM)
- MIC (Neisseria gonorrhoeae; NCTC13818, NCTC 13818): 2 µg/mL (≈ 4.7 µM)
- MIC (Neisseria gonorrhoeae; NCTC13819, NCTC 13819): 2 µg/mL (≈ 4.7 µM)
- MIC (Neisseria gonorrhoeae; NCTC13820, NCTC 13820): 2 µg/mL (≈ 4.7 µM)
- MIC (Neisseria gonorrhoeae; NCTC13821, NCTC 13821): 2 µg/mL (≈ 4.7 µM)
- MIC (Neisseria gonorrhoeae; NCTC13822, NCTC 13822): 2 µg/mL (≈ 4.7 µM)
- MIC (Neisseria gonorrhoeae; TCDC-NG08107): 2 µg/mL (≈ 4.7 µM)
- MIC90 (Neisseria gonorrhoeae; panel of 75 clinical isolates): 2 µg/mL (≈ 4.7 µM)
- MIC (Neisseria gonorrhoeae; several isolates of the panel): 0.03 to 0.5 µg/mL (≈ 0.0705 to 1.18 µM)

SMILES: Cc1cc(C)nc(N[C@@H]2CCN(c3c(F)cc4c(=O)c(C(=O)O)cn5c4c3OC[C@@H]5C)C2)n1 [Compound 50, (S)-10-((R)-3-((4,6-Dimethylpyrimidin-2-yl)amino)pyrrolidin-1-yl)-9-fluoro-3-methyl-7-oxo-2,3-dihydro-7H-[1,4]oxazino[2,3,4-ij]quinoline-6-carboxylic acid]
- MIC (S. epidermidis; ATCC12228, ATCC 12228): 0.03 µg/mL (≈ 0.0662 µM)
- MIC (S. epidermidis; ATCC 51625 / MRSE, MRSE (ATCC 51625)): 0.03 µg/mL (≈ 0.0662 µM)
- MIC (S. epidermidis; NRS101): 0.03 µg/mL (≈ 0.0662 µM)
- MIC (S. epidermidis; GIS (NRS7)): 0.5 µg/mL (≈ 1.1 µM)
- MIC (S. epidermidis; GIS (NRS8)): 1 µg/mL (≈ 2.21 µM)
- MIC (S. epidermidis; GIS (NRS60)): 0.06 µg/mL (≈ 0.132 µM)
- MIC (E. faecalis; ATCC29212, ATCC 29212, read-out: MIC): 0.25 µg/mL (≈ 0.551 µM)
- MIC (E. faecalis; ATCC51299): 0.125 µg/mL (≈ 0.276 µM)
- MIC (E. faecalis; ATCC51575, VanB (ATCC 51575), read-out: MIC): 0.25 µg/mL (≈ 0.551 µM)
- MIC (E. faecalis; ATCC700802): 0.125 µg/mL (≈ 0.276 µM)
- MIC (E. faecalis; CCUG47775, VanA (CCUG 47775), read-out: MIC): 0.5 µg/mL (≈ 1.1 µM)
- MIC range (E. faecalis; clinical isolates, Table S11B): 0.125 to 0.5 µg/mL
